Results on 15 compounds are retold here after paper PMC3951388, “Structure-Function Relationship of a Plant NCS1 Member – Homology Modeling and Mutagenesis Identified Residues Critical for Substrate Specificity of PLUTO, a Nucleobase Transporter from Arabidopsis” (PLoS ONE, 2014).

Data set [1] has as its target T1, PLUTO (Arabidopsis thaliana, UniProt Q9LZD0).
T1 construct: Heterologous expression of the full length PLUTO Arabidopsis gene in Escherichia coli uraA insertion mutants; expressed in transfected cells; host or cells: Escherichia coli JD23420 (uraA transposon insertion strain), vector pTAC-MAT-Tag-2
T1 sequence (Q9LZD0 1-599): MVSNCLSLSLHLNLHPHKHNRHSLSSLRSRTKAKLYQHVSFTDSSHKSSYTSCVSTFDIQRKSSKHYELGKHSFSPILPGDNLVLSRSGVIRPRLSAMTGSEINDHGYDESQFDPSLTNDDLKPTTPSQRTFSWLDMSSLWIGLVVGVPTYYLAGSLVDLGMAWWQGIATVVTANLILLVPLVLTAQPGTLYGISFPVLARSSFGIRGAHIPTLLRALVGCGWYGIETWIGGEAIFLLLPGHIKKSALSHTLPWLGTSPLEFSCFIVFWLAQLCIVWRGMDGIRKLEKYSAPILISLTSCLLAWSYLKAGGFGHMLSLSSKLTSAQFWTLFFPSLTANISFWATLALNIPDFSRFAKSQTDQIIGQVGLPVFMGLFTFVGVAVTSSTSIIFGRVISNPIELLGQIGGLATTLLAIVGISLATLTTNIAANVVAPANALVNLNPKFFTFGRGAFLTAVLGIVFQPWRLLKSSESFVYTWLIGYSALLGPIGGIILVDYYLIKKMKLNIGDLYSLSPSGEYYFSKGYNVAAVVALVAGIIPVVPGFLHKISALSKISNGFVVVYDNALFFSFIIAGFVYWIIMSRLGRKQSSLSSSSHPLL
Format: cell-based. Conditions: wild type PLUTO, 200 μM competitor; for Effect of competitor on uracil transport: 20 μM [14C]-uracil; for Effect of competitor on uracil transport / Effect of competitor on guanine transport / Effect of competitor on adenine transport: 2 min; for Effect of competitor on guanine transport: 20 μM radiolabelled guanine; for Effect of competitor on adenine transport: 20 μM radiolabelled adenine. From the text:
(§1) For the uptake experiments, PLUTO was heterologously expressed in an Escherichia coli transposon insertion strain lacking the endogenous uracil permease uraA (JD23420), obtained from the National Institute of Genetics (Shizuoka, Japan; http://www.shigen.nig.ac.jp/ecoli/strain/top/top.jsp). PLUTO and site directed mutants were cloned in the bacterial expression vector pTAC-MAT-Tag-2 (Sigma Aldrich, Deisenhofen, Germany) as previously described. After the transformation of the cells with the PLUTO expression plasmids, the cells were grown at 37°C and 170 rpm in YT medium containing ampicillin and kanamycin. The expression of PLUTO and site directed mutants was initiated by the addition of isopropyl β-D-thiogalactopyranosid (IPTG) with a final concentration of 0.02% at an OD600 of 0.5. The cells were grown for 2 h after induction, collected by centrifugation for 5 min at 4500 g and 4°C and resuspended with potassium phosphate buffer (50 mM, pH 7.0) to an OD600 of 5. The cells were stored on ice until use.
(§2) The uptake of nucleobases with concentrations of 20 μM was performed at 37°C and permanent shaking at 200 rpm. For the analysis of PLUTO mutants the cells were incubated for 5 min (2 min for competition studies) and the uptake was terminated by vacuum filtration through a membrane filter (0.45 μm pore size; Whatman). The cells were washed three times with 1 ml ice cold potassium phosphate buffer (50 mM, pH 7.0) to remove unimported nucleobases and the radioactivity was quantified in a Packard Tricarb 2500 scintillation counter after the addition of 4 mL scintillation cocktail (Roth). For the competition studies, all competitors were added with ten-fold excess (200 μM) to the uptake medium containing 20 μM radiolabelled nucleobases.

Data set [2] has as its target T1, PLUTO. Conditions: full length PLUTO in E. coli uraA insertion mutants; ref [4]; cited from earlier work.
Data set [3] concerns the target PLUTO E227D (Arabidopsis thaliana, UniProt Q9LZD0, E227D). Conditions: mutant E227D; 20 μM; 5 min.
Excerpt: as §1
(§3) Site directed mutagenesis was achieved by using the QuickChange II-E Site directed mutagenesis kit (Stratagene) according to the manufacturer's instructions.
as §2

Data set [4] has as its target PLUTO G147Q (Arabidopsis thaliana, UniProt Q9LZD0, G147Q). Conditions: mutant G147Q; 20 μM; 5 min.
Excerpt: as §1, §3, §2

For data set [5], the target named is T2, PLUTO E227Q T425A (Arabidopsis thaliana, UniProt Q9LZD0, E227Q/T425A).
T2 construct: Heterologous expression of the full length PLUTO Arabidopsis gene in Escherichia coli uraA insertion mutants; expressed in transfected cells; host or cells: Escherichia coli JD23420 (uraA transposon insertion strain), vector pTAC-MAT-Tag-2
T2 sequence (Q9LZD0 whole entry E227Q/T425A): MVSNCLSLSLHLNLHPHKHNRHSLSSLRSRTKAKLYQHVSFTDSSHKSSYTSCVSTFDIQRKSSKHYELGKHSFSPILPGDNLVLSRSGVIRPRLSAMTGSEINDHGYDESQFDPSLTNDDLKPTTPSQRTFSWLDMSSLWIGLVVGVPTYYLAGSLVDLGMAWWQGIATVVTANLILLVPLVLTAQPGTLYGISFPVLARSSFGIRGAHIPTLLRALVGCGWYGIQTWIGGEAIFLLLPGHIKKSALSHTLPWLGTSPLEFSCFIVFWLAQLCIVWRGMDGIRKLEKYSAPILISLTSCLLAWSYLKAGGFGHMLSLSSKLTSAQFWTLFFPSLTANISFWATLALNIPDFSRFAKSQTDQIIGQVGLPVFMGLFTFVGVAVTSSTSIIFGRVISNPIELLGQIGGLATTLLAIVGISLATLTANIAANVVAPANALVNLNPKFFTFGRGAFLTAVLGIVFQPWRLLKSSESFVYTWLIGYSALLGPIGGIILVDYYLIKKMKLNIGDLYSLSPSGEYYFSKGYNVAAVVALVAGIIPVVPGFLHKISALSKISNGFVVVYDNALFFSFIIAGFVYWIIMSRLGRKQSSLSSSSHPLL
The data set can be described thus: Radiolabelled nucleobase uptake, PLUTO mutant in E. coli lacking uraA. Format: cell-based. Conditions: 20 μM, 5 min.
Excerpt: as §1, §3, §2

Data set [6] deals with T3, PLUTO E227K (Arabidopsis thaliana, UniProt Q9LZD0, E227K).
T3 construct: Heterologous expression of the full length PLUTO Arabidopsis gene in Escherichia coli uraA insertion mutants; expressed in transfected cells; host or cells: Escherichia coli JD23420 (uraA transposon insertion strain), vector pTAC-MAT-Tag-2
T3 sequence (Q9LZD0 whole entry E227K): as the sequence (Q9LZD0 whole entry E227Q/T425A) above, with Q227K, A425T counted along it
The description is as above. Type of data set: cell-based. The note with it: 20 μM, 5 min.
Excerpt: as §1, §3, §2

The target in data set [7] is T4, PLUTO E227Q G147Q (Arabidopsis thaliana, UniProt Q9LZD0, E227Q/G147Q).
T4 construct: Heterologous expression of the full length PLUTO Arabidopsis gene in Escherichia coli uraA insertion mutants; expressed in transfected cells; host or cells: Escherichia coli JD23420 (uraA transposon insertion strain), vector pTAC-MAT-Tag-2
T4 sequence (Q9LZD0 whole entry G147Q/E227Q): as the sequence (Q9LZD0 whole entry E227Q/T425A) above, with G147Q, A425T counted along it
The description is as above. Format: cell-based. Conditions: 20 μM, 5 min.
Excerpt: as §1, §3, §2

The target of data set [8] is PLUTO E227A (Arabidopsis thaliana, UniProt Q9LZD0, E227A). The description is as above. The note with it: 20 μM, 5 min.
Chain of PLUTO E227A (Q9LZD0 whole entry E227A): as the sequence (Q9LZD0 whole entry E227Q/T425A) above, with Q227A, A425T counted along it
Excerpt: as §1, §3, §2

Data set [9] concerns the target PLUTO E227Q (Arabidopsis thaliana, UniProt Q9LZD0, E227Q). The data set is described as above. The note with it: 20 μM, 5 min.
Excerpt: as §1, §3, §2

Data set [10] has as its target T5, PLUTO W223A (Arabidopsis thaliana, UniProt Q9LZD0, W223A).
T5 construct: Heterologous expression of the full length PLUTO Arabidopsis gene in Escherichia coli uraA insertion mutants; expressed in transfected cells; host or cells: Escherichia coli JD23420 (uraA transposon insertion strain), vector pTAC-MAT-Tag-2
Format: cell-based. Conditions: mutant W223A, 200 μM competitor; for Effect of competitor on uracil transport: 20 μM uracil; for Effect of competitor on guanine transport: 20 μM guanine.
Excerpt: as §1, §3, §2

For data set [11], the target named is T1, PLUTO. In words: Radiolabelled nucleobase uptake, wild type PLUTO expressed in E. coli lacking uraA. Format: cell-based. Conditions: for Net import: wild type PLUTO (control), 5 min, corrected for uninduced cells. From the text:
The cells were stored on ice until use.

Data set [12] concerns the target PLUTO V145A G147Q (Arabidopsis thaliana, UniProt Q9LZD0, G147Q/V145A). In words: Radiolabelled nucleobase uptake, PLUTO mutant in E. coli lacking uraA. Conditions: 20 μM, 5 min.
Excerpt: as §1, §3, §2

Data set [13] has as its target PLUTO F341A (Arabidopsis thaliana, UniProt Q9LZD0, F341A). The note with it: mutant F341A; 20 μM guanine, 200 μM competitor.
Excerpt: as §1, §3, §2

Data set [14] addresses PLUTO I226A (Arabidopsis thaliana, UniProt Q9LZD0, I226A). The note with it: mutant I226A; 20 μM guanine, 200 μM competitor.
Excerpt: as §1, §3, §2

Data set [15] deals with Nc1ncnc2nc[nH]c12. In words: cells, lysate or membranes. The note with it: corrected for uptake into uninduced cells, pH 7.0.
The subject of data set [16] is Nc1nc2nc[nH]c2c(=O)[nH]1. The data set can be described thus: cells, lysate or membranes. The note with it: pH 7.0; 37.0 °C.
Data set [17] concerns O=c1cc[nH]c(=O)[nH]1. The data set can be described thus: cells, lysate or membranes. The note with it: corrected for uptake into uninduced cells, pH 7.0.

“Also recorded” adds a separate entry of the source. A value given as a limit tells only on which side of the number the result lay.

Chain of PLUTO E227Q (Q9LZD0 whole entry E227Q): as the sequence (Q9LZD0 whole entry E227Q/T425A) above, with A425T counted along it
Chain of PLUTO E227D (Q9LZD0 whole entry E227D): as the sequence (Q9LZD0 whole entry E227Q/T425A) above, with Q227D, A425T counted along it
Chain of PLUTO G147Q (Q9LZD0 whole entry G147Q): as the sequence (Q9LZD0 whole entry E227Q/T425A) above, with G147Q, Q227E, A425T counted along it
T5 sequence (Q9LZD0 whole entry W223A): as the sequence (Q9LZD0 whole entry E227Q/T425A) above, with W223A, Q227E, A425T counted along it
Chain of PLUTO V145A G147Q (Q9LZD0 whole entry V145A/G147Q): as the sequence (Q9LZD0 whole entry E227Q/T425A) above, with V145A, G147Q, Q227E, A425T counted along it
Chain of PLUTO F341A (Q9LZD0 whole entry F341A): as the sequence (Q9LZD0 whole entry E227Q/T425A) above, with Q227E, F341A, A425T counted along it
Chain of PLUTO I226A (Q9LZD0 whole entry I226A): as the sequence (Q9LZD0 whole entry E227Q/T425A) above, with I226A, Q227E, A425T counted along it

As for `Nc1ncnc2[nH]cnc12` [adenine], the “Effect of competitor on uracil transport” value in data set [1] was “remained unaffected”. Also, the “Effect of competitor on guanine transport” value in data set [1] is recorded as “marked inhibitory effects”. Besides, in [2], the Apparent affinity is 0.4 µM. This compound showed a Transport in data set [3] of 2.1 nmol mg^−1 protein. For the same compound, the “Transport rate relative to controls” value in data set [3] was found to be 64%. Besides, the “Impairment of transport versus control” value in data set [4] turned out to be 45%. Also, the “Residual transport compared to controls” value in data set [5] is listed as 32%; in [6], 7%; in data set [7], not above 16%; in data set [8], 26%. Besides, in data set [9], the “Increase of transport versus control” value is 21%.
In the case of `O=C1NC(=O)C(Cc2ccccc2)N1` (stereo not shown) [benzyl hydantoin], the “Transport by PLUTO judged by competitive binding analysis” value in data set [1] is on record as “no indication for a transport”.
With `O=C1CCNC(=O)N1` [dihydrouracil], in data set [10], the “Effect of competitor on uracil transport” value is “inhibited”.
On to `Nc1nc2nc[nH]c2c(=O)[nH]1` [guanine], for which the “Effect of competitor on uracil transport” value in data set [1] was “reduced”. Besides, the “Effect of competitor on adenine transport” value in [1] is on record as “not influenced”. For the same compound, the Apparent affinity in data set [2] is 6.3 µM. For the same compound, in data set [3], the Transport is recorded as 0.86 nmol mg^−1 protein. The “Transport activity (in words)” value in data set [4] is “not significantly altered”. Moreover, the “Residual transport compared to controls” value is listed as 25% in data set [5]; 11% in data set [6]; not above 16% in data set [7]; 4% in data set [8]; 21% in data set [9]. This compound showed a Net import in data set [11] (20 μM) of 3.4 nmol mg^−1 protein. Moreover, the “Residual transport relative to controls” value in data set [12] turned out to be 12%.
As to `O=c1[nH]cnc2nc[nH]c12` [hypoxanthine], the “Effect of competitor on guanine transport” value in data set [10] was “no longer able to inhibit”; in [1] it was “affected; also recorded: marked inhibition”; in data set [13], “inhibited”; in data set [14], “inhibited”.
For `O=C(O)c1cc(=O)[nH]c(=O)[nH]1` [orotate], in data set [1], the “Effect of competitor on uracil transport” value is “affected”. Also, the “Transport substrate status in direct uptake studies” value in data set [11] (wild type PLUTO) is on record as “not identified as transport substrates”.
Regarding `Cc1ncc(C[n+]2csc(CCO)c2C)c(N)n1` [thiamine], the “Effect of competitor on uracil transport” value in [10] is reported as “inhibited”.
In the case of `Cc1c[nH]c(=O)[nH]c1=O` [thymine], the “Effect of competitor on uracil transport” value in data set [10] is “inhibited”; in data set [1], “affected”. Further, the “Transport substrate status in direct uptake studies” value in [11] (wild type PLUTO) is on record as “not identified as transport substrates”.
Take `O=c1cc[nH]c(=O)[nH]1` [uracil]: the “Effect of competitor on adenine transport” value in data set [1] is reported as “not influenced”. Besides, the “Effect of competitor on guanine transport” value in [1] is listed as “marked inhibitory effects”. Besides, the Apparent affinity in data set [2] is 16.4 µM. The same compound yielded a Transport in data set [3] of 0.53 nmol mg^−1 protein. Further, the “Transport activity (in words)” value in data set [4] is recorded as “not significantly altered”; in data set [6], “completely extinguished”; in data set [8], “completely extinguished”; in data set [9] it was “completely extinguished”. Besides, in [7], the “Residual transport compared to controls” value is recorded as not above 16%. In data set [11] (20 μM), this compound had a Net import of 3.2 nmol mg^−1 protein. In addition, the “Import into induced E. coli cells” value in data set [11] (wild type PLUTO, 20 μM, 5 min incubation, not corrected for uninduced cells) turned out to be 3.7±0.28 nmol mg^−1 protein. Also, the “Increase of transport versus control” value in data set [12] turned out to be 50%.
Turning to `O=c1[nH]c(=O)c2[nH]c(=O)[nH]c2[nH]1` [uric acid], the “Effect of competitor on guanine transport” value is “no longer able to inhibit” in data set [10] and “affected” in [1].
In the case of “PLUTO E227A (Arabidopsis thaliana; E227A)”, the Km in data set [15] (other: mutant E227A) is 0.21 (±0.05) μM.
For “PLUTO E227D (Arabidopsis thaliana; E227D)”, the results for the Km in [16], in data set [15] (other: mutant E227D) and in [17] (other: mutant E227D) were 3.70 (±0.72) μM, 0.97 (±0.21) μM and 5.18 (±1.21) μM, respectively.
“PLUTO E227Q (Arabidopsis thaliana; E227Q)”: the Km in [15] (other: mutant E227Q) was 0.22 (±0.05) μM.
For “PLUTO G147Q (Arabidopsis thaliana; G147Q)”, the Km is 0.68 (±0.20) μM in [15] (other: mutant G147Q) and 36.07 (±2,32) μM in data set [17] (other: mutant G147Q).
As for “PLUTO V145A G147Q (Arabidopsis thaliana; G147Q/V145A)”, the figures for the Km in data set [15] (other: mutant V145A G147Q) and in [17] (other: mutant V145A G147Q) were 0.81 (±0.17) μM and 20.15 (±3.73) μM, respectively.
